Experimental data: ChEMBL document CHEMBL1153298, “Discovery of tetrahydro-cyclopenta[b]indole as selective LXRs modulator” (Bioorg Med Chem Lett, 2009)
The source made the active and inactive calls. No cut-off for these calls is given here.

What was measured:
Mus musculus [1] = assay: Increase in plasma triglyceride level in C57BL/6J mouse at 10 mg/kg/day, ip dosed for 5 days measured 2 hrs after last dose; type: functional; conditions: route intraperitoneal
Mus musculus [2] = assay: Increase in liver triglyceride level in C57BL/6J mouse at 10 mg/kg/day, ip dosed for 5 days measured 2 hrs after last dose; type: functional; conditions: route intraperitoneal
Mus musculus [3] = assay: Increase in HDL-cholesterol level in C57BL/6J mouse at 10 mg/kg/day, ip dosed for 5 days measured 2 hrs after last dose; type: functional; conditions: route intraperitoneal
[4] = Plasma concentration in C57BL/6J mouse at 10 mg/kg/day, ip dosed for 5 days; type: ADME, organism-based; parameters: route intraperitoneal
[5] = Drug level in C57BL/6J mouse liver at 10 mg/kg/day, ip dosed for 5 days; type: ADME, organism-based; parameters: route intraperitoneal; conditions: read-out: Drug uptake
[6] = Plasma concentration in C57BL/6J mouse at 40 mg/kg/day, ip dosed for 5 days; type: ADME, organism-based; parameters: route intraperitoneal
Mus musculus [7] = assay: Increase in liver triglyceride level in C57BL/6J mouse at 40 mg/kg/day, ip dosed for 5 days measured 2 hrs after last dose; type: functional; conditions: route intraperitoneal
Cytochrome P450 3A4 = Cytochrome P450 3A4 (Homo sapiens, UniProt P08684); assay: Binding affinity to CYP3A4; type: ADME
Mus musculus [8] = assay: Increase in HDL-cholesterol level in C57BL/6J mouse at 100 mg/kg/day, ip dosed for 5 days measured 2 hrs after last dose; type: functional; conditions: route intraperitoneal
Mus musculus [9] = assay: Increase in liver triglyceride level in C57BL/6J mouse at 100 mg/kg/day, ip dosed for 5 days measured 2 hrs after last dose; type: functional; conditions: route intraperitoneal
[10] = Drug level in C57BL/6J mouse liver at 100 mg/kg/day, ip dosed for 5 days; type: ADME, organism-based; parameters: route intraperitoneal; conditions: read-out: Drug uptake
Mus musculus [11] = assay: Increase in plasma triglyceride level in C57BL/6J mouse at 40 mg/kg/day, ip dosed for 5 days measured 2 hrs after last dose; type: functional; conditions: route intraperitoneal
[12] = target: Voltage-gated inwardly rectifying potassium channel KCNH2 (Homo sapiens, UniProt Q12809); assay: Binding affinity to human ERG
Mus musculus [13] = assay: Increase in plasma triglyceride level in C57BL/6J mouse at 100 mg/kg/day, ip dosed for 5 days measured 2 hrs after last dose; type: functional; conditions: route intraperitoneal
Mus musculus [14] = assay: Increase in HDL-cholesterol level in C57BL/6J mouse at 40 mg/kg/day, ip dosed for 5 days measured 2 hrs after last dose; type: functional; conditions: route intraperitoneal
[15] = Plasma concentration in C57BL/6J mouse at 100 mg/kg/day, ip dosed for 5 days; type: ADME, organism-based; parameters: route intraperitoneal
[16] = Drug level in C57BL/6J mouse liver at 40 mg/kg/day, ip dosed for 5 days; type: ADME, organism-based; parameters: route intraperitoneal; conditions: read-out: Drug uptake
[17] = target: T1, Oxysterols receptor LXR-alpha (Homo sapiens) (UniProt Q13133); assay: (§1) Binding affinity to LXRalpha
T1 sequence (whole entry): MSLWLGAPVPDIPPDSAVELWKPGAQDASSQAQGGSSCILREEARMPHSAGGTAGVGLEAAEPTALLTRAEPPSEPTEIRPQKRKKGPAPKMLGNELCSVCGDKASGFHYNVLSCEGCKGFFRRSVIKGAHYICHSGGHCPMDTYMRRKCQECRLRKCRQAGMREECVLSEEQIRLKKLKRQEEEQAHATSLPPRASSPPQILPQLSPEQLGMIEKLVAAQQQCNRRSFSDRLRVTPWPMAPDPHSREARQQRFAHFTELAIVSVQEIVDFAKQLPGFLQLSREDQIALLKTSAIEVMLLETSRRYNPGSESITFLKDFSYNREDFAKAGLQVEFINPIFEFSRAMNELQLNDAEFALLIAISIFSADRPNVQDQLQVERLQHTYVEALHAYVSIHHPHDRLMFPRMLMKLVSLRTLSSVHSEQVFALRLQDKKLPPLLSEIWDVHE

[18] = target: T1, Oxysterols receptor LXR-alpha (Homo sapiens); assay: (§2) Transactivation of LXRalpha
[19] = target: T2, Oxysterols receptor LXR-alpha (Homo sapiens, UniProt Q13133); assay: as §1
T2 sequence (Q13133 whole entry): T1 sequence (whole entry)

[20] = target: T2, Oxysterols receptor LXR-alpha; assay: as §2

Chain of Voltage-gated inwardly rectifying potassium channel KCNH2 (Q12809 whole entry): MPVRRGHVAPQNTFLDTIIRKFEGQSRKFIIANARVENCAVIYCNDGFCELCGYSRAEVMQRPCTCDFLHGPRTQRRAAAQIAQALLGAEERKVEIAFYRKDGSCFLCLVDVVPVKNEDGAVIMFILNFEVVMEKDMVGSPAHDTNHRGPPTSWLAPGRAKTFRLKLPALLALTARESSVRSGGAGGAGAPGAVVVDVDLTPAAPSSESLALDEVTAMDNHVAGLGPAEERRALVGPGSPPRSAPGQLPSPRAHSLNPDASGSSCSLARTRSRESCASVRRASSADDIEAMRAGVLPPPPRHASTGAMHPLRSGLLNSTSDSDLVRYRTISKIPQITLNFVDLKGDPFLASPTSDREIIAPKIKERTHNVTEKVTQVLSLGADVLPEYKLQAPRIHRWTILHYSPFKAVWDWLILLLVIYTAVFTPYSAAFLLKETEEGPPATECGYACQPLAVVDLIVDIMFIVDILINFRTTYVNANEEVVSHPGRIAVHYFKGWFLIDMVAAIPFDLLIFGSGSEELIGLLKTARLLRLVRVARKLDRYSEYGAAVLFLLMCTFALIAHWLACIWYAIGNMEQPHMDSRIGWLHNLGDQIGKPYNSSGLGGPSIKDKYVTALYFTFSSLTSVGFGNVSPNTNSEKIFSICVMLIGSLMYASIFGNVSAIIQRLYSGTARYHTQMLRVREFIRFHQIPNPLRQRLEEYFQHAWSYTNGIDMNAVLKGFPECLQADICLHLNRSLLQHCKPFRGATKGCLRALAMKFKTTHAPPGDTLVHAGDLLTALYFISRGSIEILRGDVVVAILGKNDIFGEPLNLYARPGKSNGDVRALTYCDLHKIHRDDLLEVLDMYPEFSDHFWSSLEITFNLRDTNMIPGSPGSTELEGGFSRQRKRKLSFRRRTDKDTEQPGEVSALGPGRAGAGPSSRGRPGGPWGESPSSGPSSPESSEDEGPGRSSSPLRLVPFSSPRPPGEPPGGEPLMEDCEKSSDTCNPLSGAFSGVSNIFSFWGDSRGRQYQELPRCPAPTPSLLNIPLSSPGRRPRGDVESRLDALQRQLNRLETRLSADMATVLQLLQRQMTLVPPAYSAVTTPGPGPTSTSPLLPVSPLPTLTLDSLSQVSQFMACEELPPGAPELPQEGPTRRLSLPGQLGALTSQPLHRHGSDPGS
Chain of Cytochrome P450 3A4 (P08684 whole entry): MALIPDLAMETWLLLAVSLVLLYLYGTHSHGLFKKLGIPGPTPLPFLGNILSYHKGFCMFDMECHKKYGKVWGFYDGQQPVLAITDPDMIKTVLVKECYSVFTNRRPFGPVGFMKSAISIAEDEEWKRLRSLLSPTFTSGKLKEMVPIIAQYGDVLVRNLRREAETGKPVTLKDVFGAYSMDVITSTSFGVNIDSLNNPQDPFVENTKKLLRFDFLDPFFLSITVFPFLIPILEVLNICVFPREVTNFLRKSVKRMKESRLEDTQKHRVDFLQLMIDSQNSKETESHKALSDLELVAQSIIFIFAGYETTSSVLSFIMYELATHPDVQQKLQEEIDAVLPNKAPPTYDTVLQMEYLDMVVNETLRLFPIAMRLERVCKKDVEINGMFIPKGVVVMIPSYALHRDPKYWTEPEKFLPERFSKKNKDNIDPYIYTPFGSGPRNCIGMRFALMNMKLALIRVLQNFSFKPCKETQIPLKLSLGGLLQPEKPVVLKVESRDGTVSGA

concentration at 120 h [4] [ng/mL] | concentration at 120 h [5] [ng/g] | IC50 [19] [nM] | EC50 [20] [nM] | SMILES | Activity (Mus musculus [1]) [%] | Activity (Mus musculus [2]) [%] | Activity (Mus musculus [3]) [%] | further results
255 | 7900 | – | – | O=S(=O)(c1ccccc1)N(CC(F)(F)F)c1ccc(C(O)(C(F)(F)F)C(F)(F)F)cc1 [T091317] | 20 | 270 | 23 | –
180 | 1130 | – | – | Cc1nnc([C@](F)([C@H]2Cc3[nH]c4ccc(Cl)cc4c3C2)S(=O)(=O)c2ccccc2)o1 | 9 | 100 | 27 | concentration at 120 h [6]: 682 ng/mL; Activity (Mus musculus [7]): -19%; Activity (Cytochrome P450 3A4): Not Active; Activity (Mus musculus [8]): 36%; Activity (Mus musculus [9]): 45%; concentration at 120 h [10]: 13200 ng/g; Activity (Mus musculus [11]): 9%; Activity [12]: Not Active; Activity (Mus musculus [13]): -2%; Activity (Mus musculus [14]): 27%; concentration at 120 h [15]: 2150 ng/mL; concentration at 120 h [16]: 5490 ng/g
– | – | – | – | COC(=O)C(C)(C1CCCc2c([nH]c3ccc(Cl)cc23)C1)S(=O)(=O)c1ccccc1 (stereo not drawn) | – | – | – | Activity [17]: inactive; Activity [18]: inactive
– | – | 1630 | 1260 | COC(=O)c1noc([C@](F)([C@H]2Cc3[nH]c4ccc(Cl)cc4c3C2)S(=O)(=O)c2ccccc2)n1 (racemic) | – | – | – | –
– | – | 100 | 160 | N#Cc1noc([C@](F)([C@H]2Cc3[nH]c4ccc(Cl)cc4c3C2)S(=O)(=O)c2ccccc2)n1 (racemic) | – | – | – | –
